Patent publication US20150045291A1, “LIPOPEPTIDE CONJUGATES COMPRISING SPHINGOLIPID AND HIV GP41 DERIVED PEPTIDES” (priority 2012, published 2015)
Where two headings read alike, the source gives them in different places. Starred links: 1 amine or outer side, 2 acyl side, 3 side chain; linkers in the order of their positions; H or OH if unused. Residues, ends and D or L forms follow the SMILES beside them. Groups on a side chain read outwards from the residue. *: point of attachment. Sphinganine = CCCCCCCCCCCCCCC[C@@H](O)[C@H](CO)N*; CO = O=C([*:1])[*:2]

System: fully infectious HIV-1 HXB2
Conditions: for IC90: read-out: IC90 (nM), […]
[1] = read-out: IC50 (inhibitory concentration at 50% infectivity), TZM-bl cells, fully contagious HXB2 HIV-1
[2] = fully infectious HIV-1 system (Table 2)
[3] = read-out: IC50 (nM), […], fully infectious HIV-1 system (Table 3)
[4] = fully infectious HIV-1 system (Table 3)

Question: Which IC50 [1] does the source give for `CCCCCCCCCCCCCCC[C@@H](O)[C@H](CO)NC(=O)NCCCC[C@H](NC(=O)[C@H](CC(N)=O)NC(=O)[C@H](CCCCN)NC(=O)[C@H](CCC(=O)O)NC(=O)[C@H](CCC(N)=O)NC(=O)[C@H](CCC(N)=O)NC(=O)[C@H](CC(N)=O)NC(=O)[C@H](CCC(N)=O)NC(=O)[C@H](CO)NC(=O)[C@H](CCC(=O)O)NC(=O)[C@H](CCC(=O)O)NC(=O)[C@@H](NC(=O)[C@H](CC(C)C)NC(=O)[C@H](CO)NC(=O)[C@H](Cc1c[nH]cn1)NC(=O)[C@@H](NC(=O)[C@H](CC(C)C)NC(=O)[C@H](CO)NC(=O)[C@@H](NC(=O)[C@@H](N)Cc1ccc(O)cc1)[C@@H](C)O)[C@@H](C)CC)[C@@H](C)CC)C(N)=O` [DP19K-sphing] (H-YTSLIHSLIEESQNQQEKNK([CO-Sphinganine])-NH2) here?
Answer: The IC50 was 350 nM.

Question: For `CC[C@H](C)[C@H](NC(=O)[C@H](CC(C)C)NC(=O)[C@H](CO)NC(=O)[C@H](Cc1c[nH]cn1)NC(=O)[C@@H](NC(=O)[C@H](CC(C)C)NC(=O)[C@H](CO)NC(=O)[C@@H](NC(=O)[C@@H](N)Cc1ccc(O)cc1)[C@@H](C)O)[C@@H](C)CC)C(=O)N[C@@H](CCC(=O)O)C(=O)N[C@@H](CCC(=O)O)C(=O)N[C@@H](CO)C(=O)N[C@@H](CCC(N)=O)C(=O)N[C@@H](CC(N)=O)C(=O)N[C@@H](CCC(N)=O)C(=O)N[C@@H](CCC(N)=O)C(=O)N[C@@H](CCC(=O)O)C(=O)N[C@@H](CCCCN)C(=O)N[C@@H](CC(N)=O)C(=O)N[C@@H](CCCCN)C(N)=O` [DP19K] (H-YTSLIHSLIEESQNQQEKNK-NH2; C-terminus assumed), which IC50 [2] is on record?
Answer: The IC50 was 2210 ± 507 nM.

Question: For `CC[C@H](C)[C@H](NC(=O)CNC(=O)[C@H](Cc1c[nH]c2ccccc12)NC(=O)[C@@H](NC(=O)[C@@H](NC(=O)[C@H](CC(C)C)NC(=O)[C@H](CCC(N)=O)NC(=O)[C@H](CC(C)C)NC(=O)[C@@H](N)CC(C)C)[C@@H](C)O)C(C)C)C(=O)N[C@@H](CCCCN)C(=O)N[C@@H](CCC(N)=O)C(=O)N[C@@H](CC(C)C)C(=O)N[C@@H](CCC(N)=O)C(=O)N[C@@H](C)C(N)=O` [N14, LLQLTVWGIKQLQA] (H-LLQLTVWGIKQLQA-NH2; C-terminus assumed), which IC50 [2] is on record?
Answer: Its IC50 is over 4000 nM.

Question: With `CC[C@H](C)[C@H](NC(=O)[C@H](CCC(N)=O)NC(=O)[C@H](CC(C)C)NC(=O)[C@H](Cc1c[nH]c2ccccc12)NC(=O)[C@H](CC(C)C)NC(=O)[C@@H](NC(=O)[C@H](CCC(N)=O)NC(=O)[C@H](CC(C)C)NC(=O)[C@H](CCCNC(=N)N)NC(=O)[C@H](C)NC(=O)[C@@H](NC(=O)[C@H](CCCCN)NC(=O)[C@@H](N)CCC(N)=O)[C@@H](C)CC)[C@@H](C)O)C(=O)NCC(=O)N[C@H](C(=O)N[C@@H](CC(C)C)C(=O)N[C@@H](CC(C)C)C(N)=O)C(C)C` [N17 scrambled, QKIARLQTLWLQIGVLL] (H-QKIARLQTLWLQIGVLL-NH2; C-terminus assumed) as the compound, how does the IC50 [2] read?
Answer: Its IC50 is over 4000 nM.

Question: Which IC50 [2] does the source give for `CC[C@H](C)[C@H](NC(=O)CNC(=O)[C@H](Cc1c[nH]c2ccccc12)NC(=O)[C@@H](NC(=O)[C@@H](NC(=O)[C@H](CC(C)C)NC(=O)[C@H](CCC(N)=O)NC(=O)[C@H](CC(C)C)NC(=O)[C@@H](N)CC(C)C)[C@@H](C)O)C(C)C)C(=O)N[C@@H](CCCCN)C(=O)N[C@@H](CCC(N)=O)C(=O)N[C@@H](CC(C)C)C(=O)N[C@@H](CCC(N)=O)C(=O)N[C@@H](C)C(=O)N[C@@H](CCCNC(=N)N)C(=O)N[C@H](C(=O)N[C@@H](CC(C)C)C(=O)N[C@@H](CCCCN)C(N)=O)[C@@H](C)CC` [N17K, LLQLTVWGIKQLQARILK] (H-LLQLTVWGIKQLQARILK-NH2; C-terminus assumed) here?
Answer: The IC50 was over 4000 nM.

Question: How did the IC50 [2] turn out when `CCCCCCCCCCCCCCC[C@@H](O)[C@H](CO)NC(=O)NCCCC[C@H](NC(=O)[C@H](CC(C)C)NC(=O)[C@@H](NC(=O)[C@H](CCCNC(=N)N)NC(=O)[C@H](C)NC(=O)[C@H](CCC(N)=O)NC(=O)[C@H](CC(C)C)NC(=O)[C@H](CCC(N)=O)NC(=O)[C@H](CCCCN)NC(=O)[C@@H](NC(=O)CNC(=O)[C@H](Cc1c[nH]c2ccccc12)NC(=O)[C@@H](NC(=O)[C@@H](NC(=O)[C@H](CC(C)C)NC(=O)[C@H](CCC(N)=O)NC(=O)[C@H](CC(C)C)NC(=O)[C@@H](N)CC(C)C)[C@@H](C)O)C(C)C)[C@@H](C)CC)[C@@H](C)CC)C(N)=O` [N17K-sphing, LLQLTVWGIKQLQARILK-Sphinganine] (H-LLQLTVWGIKQLQARILK([CO-Sphinganine])-NH2) was run?
Answer: Its IC50 is 291 ± 102 nM.

Question: And the IC50 [1]?
Answer: The IC50 was 287 nM.

Question: With `CC(C)C[C@H](NC(=O)[C@H](CCCNC(=N)N)NC(=O)[C@H](CCCNC(=N)N)NC(=O)[C@H](C)NC(=O)[C@H](CCC(N)=O)NC(=O)[C@H](CC(N)=O)NC(=O)[C@H](CCC(N)=O)NC(=O)[C@H](CCCCN)NC(=O)[C@H](CO)NC(=O)CNC(=O)[C@H](Cc1c[nH]c2ccccc12)NC(=O)[C@@H](NC(=O)[C@H](CO)NC(=O)[C@H](CC(C)C)NC(=O)[C@H](CCC(N)=O)NC(=O)[C@H](CCC(=O)O)NC(=O)[C@@H](N)CC(C)C)C(C)C)C(N)=O` [N17mut (a, d), LEQLSVWGSKQNQARRL] (H-LEQLSVWGSKQNQARRL-NH2; C-terminus assumed) as the compound, how does the IC50 [2] read?
Answer: Its IC50 is over 4000 nM.

Question: How did the IC50 [2] turn out when `CC[C@H](C)[C@H](NC(=O)[C@H](CCCNC(=N)N)NC(=O)[C@H](C)NC(=O)[C@H](CC(C)C)NC(=O)[C@H](CC(C)C)NC(=O)[C@H](CCC(N)=O)NC(=O)[C@H](CCCCN)NC(=O)[C@@H](NC(=O)[C@H](CCCCN)NC(=O)[C@H](Cc1c[nH]c2ccccc12)NC(=O)[C@H](CCC(N)=O)NC(=O)[C@@H](NC(=O)[C@H](CC(C)C)NC(=O)[C@H](CCC(N)=O)NC(=O)[C@H](CC(C)C)NC(=O)[C@@H](N)CCC(=O)O)[C@@H](C)O)[C@@H](C)CC)C(=O)N[C@@H](CC(C)C)C(=O)N[C@@H](CCCCN)C(N)=O` [N17mut (e, g) K, ELQLTQWKIKQLLARILK] (H-ELQLTQWKIKQLLARILK-NH2; C-terminus assumed) was run?
Answer: Its IC50 is over 4000 nM.

Question: Which IC50 [2] does the source give for `CCCCCCCCCCCCCCC[C@@H](O)[C@H](CO)NC(=O)NCCCC[C@H](NC(=O)[C@H](CC(C)C)NC(=O)[C@@H](NC(=O)[C@H](CCCNC(=N)N)NC(=O)[C@H](C)NC(=O)[C@H](CC(C)C)NC(=O)[C@H](CC(C)C)NC(=O)[C@H](CCC(N)=O)NC(=O)[C@H](CCCCN)NC(=O)[C@@H](NC(=O)[C@H](CCCCN)NC(=O)[C@H](Cc1c[nH]c2ccccc12)NC(=O)[C@H](CCC(N)=O)NC(=O)[C@@H](NC(=O)[C@H](CC(C)C)NC(=O)[C@H](CCC(N)=O)NC(=O)[C@H](CC(C)C)NC(=O)[C@@H](N)CCC(=O)O)[C@@H](C)O)[C@@H](C)CC)[C@@H](C)CC)C(N)=O` [N17mut (e, g) K-sphing, ELQLTQWKIKQLLARILK-Sphinganine] (H-ELQLTQWKIKQLLARILK([CO-Sphinganine])-NH2) here?
Answer: Its IC50 is 120 ± 40 nM.

Question: Which IC50 [3] does the source give for `CC[C@H](C)[C@H](NC(=O)[C@H](CCC(=O)O)NC(=O)[C@H](CCCNC(=N)N)NC(=O)[C@H](CC(=O)O)NC(=O)[C@H](Cc1c[nH]c2ccccc12)NC(=O)[C@H](CCC(=O)O)NC(=O)[C@H](CCSC)NC(=O)[C@H](Cc1c[nH]c2ccccc12)NC(=O)[C@@H](NC(=O)[C@@H](N)[C@@H](C)O)[C@@H](C)O)C(=O)N[C@@H](CC(N)=O)C(=O)N[C@@H](CC(N)=O)C(=O)N[C@@H](Cc1ccc(O)cc1)C(=O)N[C@H](C(=O)N[C@@H](CCCCN)C(N)=O)[C@@H](C)O` [PBDK, TTWMEWDREINNYTK] (H-TTWMEWDREINNYTK-NH2; N-terminus and C-terminus assumed) here?
Answer: The IC50 was 5350 ± 1700 nM.

Question: What about the IC90 [4] of the same compound?
Answer: Its IC90 is over 10000 nM.

Question: `CCCCCCCCCCCCCCC[C@@H](O)[C@H](CO)NC(=O)NCCCC[C@H](NC(=O)[C@@H](NC(=O)[C@H](Cc1ccc(O)cc1)NC(=O)[C@H](CC(N)=O)NC(=O)[C@H](CC(N)=O)NC(=O)[C@@H](NC(=O)[C@H](CCC(=O)O)NC(=O)[C@H](CCCNC(=N)N)NC(=O)[C@H](CC(=O)O)NC(=O)[C@H](Cc1c[nH]c2ccccc12)NC(=O)[C@H](CCC(=O)O)NC(=O)[C@H](CCSC)NC(=O)[C@H](Cc1c[nH]c2ccccc12)NC(=O)[C@@H](NC(=O)[C@@H](N)[C@@H](C)O)[C@@H](C)O)[C@@H](C)CC)[C@@H](C)O)C(N)=O` [PBDK-Sphing, TTWMEWDREINNYTK-Sphinganine] (H-TTWMEWDREINNYTK([CO-Sphinganine])-NH2; N-terminus assumed) was tested. Which IC50 [3] did it give?
Answer: The IC50 was 467 ± 140 nM.

Question: And the IC90 [4]?
Answer: The IC90 was 1090 ± 100 nM.

Question: With `CCCCCCCCCCCCCCC[C@@H](O)[C@H](CO)NC(=O)NCCCC[C@H](NC(=O)[C@H](CC(N)=O)NC(=O)[C@H](Cc1c[nH]c2ccccc12)NC(=O)[C@H](CCSC)NC(=O)[C@H](Cc1ccc(O)cc1)NC(=O)[C@H](CC(N)=O)NC(=O)[C@@H](NC(=O)[C@H](CC(=O)O)NC(=O)[C@H](CCC(=O)O)NC(=O)[C@H](CCCNC(=N)N)NC(=O)[C@H](Cc1c[nH]c2ccccc12)NC(=O)[C@@H](NC(=O)[C@H](CCC(=O)O)NC(=O)[C@@H](NC(=O)[C@@H](N)[C@@H](C)O)[C@@H](C)O)[C@@H](C)CC)[C@@H](C)O)C(N)=O` [Scrambled-Sphing, TTEIWREDTNYMWNK-sphing] (H-TTEIWREDTNYMWNK([CO-Sphinganine])-NH2; N-terminus assumed) as the compound, how does the IC50 [3] read?
Answer: The IC50 was 895 ± 70 nM.

Question: And the IC90 [4]?
Answer: The IC90 was 6260 ± 3670 nM.

Question: `CCCCCCCCCCCCCCC[C@@H](O)[C@H](CO)NC(=O)N[C@@H](CC(C)C)C(=O)N[C@@H](CC(C)C)C(=O)N[C@@H](CCC(N)=O)C(=O)N[C@@H](CC(C)C)C(=O)N[C@H](C(=O)N[C@H](C(=O)N[C@@H](Cc1c[nH]c2ccccc12)C(=O)NCC(=O)N[C@H](C(=O)N[C@@H](CCCCN)C(=O)N[C@@H](CCC(N)=O)C(=O)N[C@@H](CC(C)C)C(=O)N[C@@H](CCC(N)=O)C(=O)N[C@@H](C)C(N)=O)[C@@H](C)CC)C(C)C)[C@@H](C)O` [Sphing-N14, Sphinganine-LLQLTVWGIKQLQA] ({Sphinganine-CO}-LLQLTVWGIKQLQA-NH2) was tested. Which IC50 [2] did it give?
Answer: Its IC50 is 500 ± 100 nM.

Question: Which IC50 [2] does the source give for `CCCCCCCCCCCCCCC[C@@H](O)[C@H](CO)NC(=O)N[C@@H](CCC(N)=O)C(=O)N[C@@H](CCCCN)C(=O)N[C@H](C(=O)N[C@@H](C)C(=O)N[C@@H](CCCNC(=N)N)C(=O)N[C@@H](CC(C)C)C(=O)N[C@@H](CCC(N)=O)C(=O)N[C@H](C(=O)N[C@@H](CC(C)C)C(=O)N[C@@H](Cc1c[nH]c2ccccc12)C(=O)N[C@@H](CC(C)C)C(=O)N[C@@H](CCC(N)=O)C(=O)N[C@H](C(=O)NCC(=O)N[C@H](C(=O)N[C@@H](CC(C)C)C(=O)N[C@@H](CC(C)C)C(N)=O)C(C)C)[C@@H](C)CC)[C@@H](C)O)[C@@H](C)CC` [Sphing-N17 scrambled] ({Sphinganine-CO}-QKIARLQTLWLQIGVLL-NH2) here?
Answer: The IC50 was over 4000 nM.
